Laboratory results taken from patent publication US20260021095A1, “BIFUNCTIONAL COMPOUNDS CONTAINING PYRIDO[2,3-d]PYRIMIDIN-7(8H)-ONE DERIVATIVES FOR DEGRADING CYCLIN-DEPENDENT KINASE 2 VIA UBIQUITIN PROTEASOME PATHWAY” (NIKANG THERAPEUTICS, INC., priority 2022, published 2026).

How the values were obtained:
CDK2 [1] = biological target: T1, CDK2 (Homo sapiens, UniProt P24941); assay: High-throughput HTRF measurement of cellular endogenous CDK2 (degradation) in OVCAR3 cells; assay type: cell-based; details: HTRF total CDK2, read-out: DC50 OVCAR3_6 h
T1 construct: High-Throughput Measurement of Cellular Endogenous CDK2; endogenous in cells; host or cells: OVCAR3
Method: Effects of compounds on cellular CDK2 level can be monitored by a high-throughput HTRF assay.
To determine half maximal degradation concentration (DC50) values of compounds, cellular CDK2 level was measured in 96-well format using HTRF total CDK2 cellular kit (Cat #64CDK2TPEG) from Cisbio.
On Day 1, OVCAR3 cells were seeded into 96-well tissue-culture treated plates at 20,000 cells/well in 200 μL and incubated overnight at 37° C. in C02 atmosphere. On Day 2 cells were treated with compounds at concentration ranging from 0.3 to 10,000 nM using HP D300 digital dispenser. […] Immediately 30 μL 1× lysis buffer was supplemented from the kit and the plate was incubated at room temperature on shaker for 30 min. After homogenization by pipetting up and down, 8 μL cell lysate from 96-well cell culture plate was transferred to 384-well small volume white detection plate. 2 μL premixed detection solution was added and the plate was covered with sealer. […] Detection plates were incubated overnight at room temperature and read on ClarioStar (BMG Labtech) in TR-FRET mode (665 nM and 620 nM). […] Half maximal degradation concentration (DC50) values were calculated with a four-parameter logistic fit using GraphPad Prism (version 8; La Jolla, CA).

CDK2 [2] = biological target: T1, CDK2; assay: Inhibition of CDK2: phospho-Rb (S807/811) HTRF measurement in OVCAR3 cells; assay type: cell-based; details: 24 h compound treatment, HTRF phospho-RB S807/811, read-out: pRb OVCAR3 (μM), CDK2 IC50 in pRB(S807/811) assay
Method: Phosphorylation of RB protein at S807/811 were measured using HTRF phospho-RB cellular kits (Cat #64RBS807PEG) from Cisbio.
On Day 1, OVCAR3 (CDK2 dependent cell line) cells were seeded into 96-well tissue-culture treated plates at 20,000 cells/well in 200 μL and incubated overnight at 37° C. in CO2 atmosphere. On Day 2, the cells were treated with test compounds at concentrations from 0.3 to 10,000 nM using HP D300 digital dispenser. Twenty-four hours after compound treatment, cell culture media was removed by flicking the plate and tapping the plate against clean paper towel. Immediately 30 μL 1× lysis buffer was supplemented from the kit and the plate was incubated at room temperature on shaker for 30 min. After homogenization by pipetting up and down, 8 μL cell lysate from 96-well cell culture plate was transferred to 384-well small volume white detection plate. 2 μL premixed detection solution was added and the plate was covered with sealer. […] Detection plates were incubated for 4 h at room temperature and read on ClarioStar (BMG Labtech) in TR-FRET mode ([…]). […] Half maximal inhibition concentration (IC50) values are calculated with a four-parameter logistic fit using GraphPad Prism (version 8; La Jolla, CA). […]

| DC50 (CDK2 [1]) [nM] | IC50 (CDK2 [2]) [µM] | Structure (SMILES) |
| --- | --- | --- |
| 41.9 | 0.1 to 1 | Cn1nc(N2CCC(=O)NC2=O)c2ccc(C3CCN(Cc4cccc(S(=O)(=O)N5CC[C@H](Nc6ncc7ccc(=O)n(C)c7n6)[C@H](F)C5)c4)CC3)cc21 (racemic) [compound 1, Rac-1-(6-(1-(3-(((3R,4S)-3-fluoro-4-((8-methyl-7-oxo-7,8-dihydropyrido[2,3-d]pyrimidin-2-yl)amino)piperidin-1-yl)sulfonyl)benzyl)-piperidin-4-yl)-1-methyl-1H-indazol-3-yl)-dihydropyrimidine-2,4(1H,3H)-dione] |
| 1310 | 1 to 10 | Cn1nc(N2CCC(=O)NC2=O)c2ccc(C3CCN(Cc4cccc(S(=O)(=O)N5CC[C@H](Nc6ncc7ccc(=O)n(CC(F)(F)F)c7n6)[C@H](F)C5)c4)CC3)cc21 (racemic) [compound 2, Rac-1-(6-(1-(3-(((3R,4S)-3-fluoro-4-((7-oxo-8-(2,2,2-trifluoroethyl)-7,8-dihydropyrido[2,3-d]pyrimidin-2-yl)amino)piperidin-1-yl)-sulfonyl)benzyl)piperidin-4-yl)-1-methyl-1H-indazol-3-yl)dihydropyrimidine-2,4(1H,3H)-dione] |
